ChEMBL document CHEMBL1201862, “PubChem BioAssay data set” (2004)
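Compound exposure: 48 hours, 5 concentrations, 96-well plates. GI50 is the concentration that inhibits growth by half.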 Calls of active or inactive are those of the source. Cut-off read from the data, not from the text of the source: active = GI50 up to about 1.1 µM and inactive = higher.

Columns and labels:
Test in all cases: DTP human tumour cell line panel, 48 h
NCI-H522 = test system: NCI-H522
MCF7 = test system: MCF7
RXF 393 = test system: RXF 393
NCI/ADR-RES = test system: NCI/ADR-RES
M14 = test system: M14
CAKI-1 = test system: CAKI-1
UACC-257 = test system: UACC-257
LOX IMVI = test system: LOX IMVI
OVCAR-4 = test system: OVCAR-4
IGROV-1 = test system: IGROV-1
PC-3 = test system: PC-3
Hs-578T = test system: Hs-578T
COLO 205 = test system: COLO 205
OVCAR-5 = test system: OVCAR-5
A498 = test system: A498
HL-60 = test system: HL-60
SW-620 = test system: SW-620
HCC 2998 = test system: HCC 2998
MDA-MB-231 = test system: MDA-MB-231

Structure (SMILES) | GI50 (NCI-H522) | GI50 (MCF7) | GI50 (RXF 393) | GI50 (NCI/ADR-RES) | GI50 (M14) | GI50 (CAKI-1) | GI50 (UACC-257) | GI50 (LOX IMVI) | GI50 (OVCAR-4) | GI50 (IGROV-1) | GI50 (PC-3) | GI50 (Hs-578T) | GI50 (COLO 205) | GI50 (OVCAR-5) | GI50 (A498) | GI50 (HL-60) | GI50 (SW-620) | GI50 (HCC 2998) | GI50 (MDA-MB-231)
Cc1ccc(C2(N3CCOCC3)OC(C)(C)c3cccc4cccc2c34)cc1 (configuration not stated) | 15.8 µM (inactive) | 16 µM (inactive) | 15.3 µM (inactive) | 15.7 µM (inactive) | 16.8 µM (inactive) | 18.2 µM (inactive) | 18 µM (inactive) | 16.5 µM (inactive) | 15.9 µM (inactive) | 17.9 µM (inactive) | 16.5 µM (inactive) | 20.9 µM (inactive) | 15.9 µM (inactive) | 15.8 µM (inactive) | 17.7 µM (inactive) | 34.9 µM (inactive) | 18.2 µM (inactive) |  | 
O=c1[nH]nc(-c2ccc3ccccc3c2)[nH]1 | > 100 µM (inactive) | > 100 µM (inactive) | > 100 µM (inactive) | > 100 µM (inactive) | > 100 µM (inactive) | > 100 µM (inactive) | > 100 µM (inactive) | > 100 µM (inactive) | > 100 µM (inactive) | 70.3 µM (inactive) | > 100 µM (inactive) | 2.81 µM (inactive) | > 100 µM (inactive) | > 100 µM (inactive) | 80 µM (inactive) | > 100 µM (inactive) | > 100 µM (inactive) | > 100 µM (inactive) | 
CSc1nc(C#N)c(N)n1C | > 100 µM (inactive) |  | > 100 µM (inactive) | > 100 µM (inactive) | > 100 µM (inactive) | > 100 µM (inactive) | > 100 µM (inactive) | > 100 µM (inactive) | > 100 µM (inactive) | > 100 µM (inactive) | > 100 µM (inactive) | > 100 µM (inactive) | > 100 µM (inactive) | > 100 µM (inactive) | > 100 µM (inactive) | > 100 µM (inactive) | > 100 µM (inactive) |  | > 100 µM (inactive)
O=C(O)/C=C\C(=O)Nc1ccccn1 | > 100 µM (inactive) |  | > 100 µM (inactive) | > 100 µM (inactive) | > 100 µM (inactive) | > 100 µM (inactive) | > 100 µM (inactive) | > 100 µM (inactive) | > 100 µM (inactive) | > 100 µM (inactive) | > 100 µM (inactive) | > 100 µM (inactive) | > 100 µM (inactive) | > 100 µM (inactive) | > 100 µM (inactive) | > 100 µM (inactive) | > 100 µM (inactive) |  | > 100 µM (inactive)
Cc1cc2c(O)c(c1)COCc1cc(C)cc(c1O)COCc1cc(C)cc(c1O)COC2 | 49.2 µM (inactive) | > 100 µM (inactive) | > 100 µM (inactive) | > 100 µM (inactive) | > 100 µM (inactive) | > 100 µM (inactive) | > 100 µM (inactive) |  | > 100 µM (inactive) |  | > 100 µM (inactive) |  | 96.2 µM (inactive) | > 100 µM (inactive) | > 100 µM (inactive) | > 100 µM (inactive) | > 100 µM (inactive) | > 100 µM (inactive) | 72.8 µM (inactive)
COC(=N)C12C(N)=NC(OC)(OC)C1(C#N)C21C(=O)N(c2ccccc2)N=C1C (configuration not stated) | > 100 µM (inactive) | > 100 µM (inactive) | > 100 µM (inactive) | > 100 µM (inactive) | > 100 µM (inactive) | > 100 µM (inactive) | > 100 µM (inactive) |  | > 100 µM (inactive) | > 100 µM (inactive) | > 100 µM (inactive) |  | > 100 µM (inactive) | > 100 µM (inactive) | > 100 µM (inactive) | > 100 µM (inactive) | > 100 µM (inactive) | > 100 µM (inactive) | > 100 µM (inactive)
Sc1nnc(CCCCCCCCc2nnc(S)o2)o1 |  | > 100 µM (inactive) | > 100 µM (inactive) | > 100 µM (inactive) | > 100 µM (inactive) | > 100 µM (inactive) | > 100 µM (inactive) | > 100 µM (inactive) | > 100 µM (inactive) | > 100 µM (inactive) | > 100 µM (inactive) |  | > 100 µM (inactive) | > 100 µM (inactive) | > 100 µM (inactive) | > 100 µM (inactive) | > 100 µM (inactive) |  | > 100 µM (inactive)
Cc1ccc([S+](c2ccccc2)c2cc(C)ccc2C)cc1 (configuration not stated) | 3.13 µM (inactive) |  |  |  | 22.2 µM (inactive) | 26.7 µM (inactive) | 1.48 µM (inactive) | 2.35 µM (inactive) | 29.4 µM (inactive) | 0.117 µM (active) |  |  | 2.99 µM (inactive) |  | 0.0435 µM (active) | 1.97 µM (inactive) | 5.64 µM (inactive) | 1.7 µM (inactive) | 
CCOC(=O)C(O)(NC(=O)Nc1ccc(F)cc1)C(F)(F)F (configuration not stated) |  |  | > 100 µM (inactive) | > 100 µM (inactive) | > 100 µM (inactive) | 38.8 µM (inactive) | > 100 µM (inactive) | > 100 µM (inactive) |  | > 100 µM (inactive) | > 100 µM (inactive) | > 100 µM (inactive) | > 100 µM (inactive) | > 100 µM (inactive) | > 100 µM (inactive) | > 100 µM (inactive) | > 100 µM (inactive) | > 100 µM (inactive) | 
O=[N+]([O-])C(/C=C(\Cl)n1nnc2ccccc21)=C(/Cl)n1nnc2ccccc21 | > 100 µM (inactive) |  | > 100 µM (inactive) | > 100 µM (inactive) | > 100 µM (inactive) | > 100 µM (inactive) | > 100 µM (inactive) | > 100 µM (inactive) | > 100 µM (inactive) | > 100 µM (inactive) | > 100 µM (inactive) | > 100 µM (inactive) | > 100 µM (inactive) | > 100 µM (inactive) | > 100 µM (inactive) |  |  | > 100 µM (inactive) | > 100 µM (inactive)
O=c1cn[nH]c(=S)n1/N=C/c1c[nH]c2ccccc12 | 39.1 µM (inactive) | 45.7 µM (inactive) |  | > 100 µM (inactive) | > 100 µM (inactive) | > 100 µM (inactive) | 63 µM (inactive) | 30 µM (inactive) | 88.1 µM (inactive) | 0.564 µM (active) | 77.6 µM (inactive) | > 100 µM (inactive) | > 100 µM (inactive) | > 100 µM (inactive) | > 100 µM (inactive) | 14.5 µM (inactive) | 45.3 µM (inactive) | > 100 µM (inactive) | 
CCCCc1c(C(=O)OC(C)(C)C)cc(C#Cc2cc(C(=O)OC(C)(C)C)c(CCCC)c(C(=O)OC(C)(C)C)c2)cc1C(=O)OC(C)(C)C | > 100 µM (inactive) | > 100 µM (inactive) |  | > 100 µM (inactive) | > 100 µM (inactive) | > 100 µM (inactive) | > 100 µM (inactive) |  | > 100 µM (inactive) | > 100 µM (inactive) | > 100 µM (inactive) |  | > 100 µM (inactive) | > 100 µM (inactive) | > 100 µM (inactive) |  |  | > 100 µM (inactive) | > 100 µM (inactive)
